{
  "source": "patent US9145414B2",
  "about": "“1,2,4-triazine-6-carboxamide derivative” (TAIHO PHARMACEUTICAL CO., LTD., priority 2011, dated 2015)",
  "data": [
    {"target": "human Syk protein (Homo sapiens (Human), UniProt P43405)", "assay": "Syk kinase inhibition test", "format": "biochemical", "conditions": "Table 95; read-out: SYK inhibitory activity IC50", "procedure": "Finally, phosphorylated peptides and non-phosphorylated peptides were separated therebetween using LabChip™ 3000 system (Caliper Life Sciences, Inc., excitation wavelength: 488 nm, detection wavelength: 530 nm). Their respective amounts were measured, and the rate of phosphorylation reaction was then determined from the ratio between the amounts. The concentration at which the compound can inhibit 50% phosphorylation reaction is defined as an IC50 value (μM).\nAlso, known 1,2,4-triazine-6-carboxamide derivatives A, B, and C (WO2000/075113 (A: compound No. 121 and B: compound No. 154) and WO2000/076980 (C: compound No. 39)) were synthesized as control compounds. Their IC50 values (μM) were calculated in the same way as above and then compared with that of the compound of the present invention.", "units": {"IC50": "nM"}, "values": [
      {"smiles": "CCn1cc2cc(Nc3nc(N[C@@H]4CCCC[C@@H]4N)nnc3C(N)=O)cc(-n3cccn3)c2n1", "note": "[Example 79, 3-(((1R,2S)-2-aminocyclohexyl)amino)-5-((2-ethyl-7-(1H-pyrazol-1-yl)-2H-indazol-5-yl)amino)-1,2,4-triazine-6-carboxamide]", "IC50": 0.37},
      {"smiles": "NC(=O)c1nnc(N[C@@H]2CCCC[C@@H]2N)nc1Nc1csc2ccccc12", "note": "[Example 212]", "IC50": 0.29},
      {"smiles": "[2H]C([2H])([2H])C([2H])([2H])n1ncc2cc(Nc3nc(N[C@H]4CCCNC4)nnc3C(N)=O)ccc21", "note": "[Example 7, (S)-5-(1-(ethyl-d5)-1H-indazol-5-ylamino)-3-(piperidin-3-ylamino)-1,2,4-triazine-6-carboxamide diformate]", "IC50": 0.92},
      {"smiles": "COC[C@H](N)[C@@H](C)Nc1nnc(C(N)=O)c(Nc2cc(C)cc3c2ccn3C)n1", "note": "[Example 256, 3-(((2R,3R)-3-amino-4-methoxybutan-2-yl)amino)-5-((1,6-dimethyl-1H-indol-4-yl)amino)-1,2,4-triazine-6-carboxamide]", "IC50": 0.35},
      {"smiles": "CCn1ncc2cc(Nc3nc(N[C@H](C)[C@@H](N)COC)nnc3C(N)=O)cc(C)c21", "note": "[Example 311, 3-(((2R,3R)-3-amino-4-methoxybutan-2-yl)amino)-5-((1-ethyl-7-methyl-1H-indazol-5-yl)amino)-1,2,4-triazine-6-carboxamide]", "IC50": 0.55},
      {"smiles": "NC(=O)c1nnc(N[C@@H]2CCCC[C@@H]2N)nc1Nc1cccc2c1ccn2C1COC1", "note": "[Example 34, 3-((1R,2S)-2-aminocyclohexylamino)-5-(1-(oxetan-3-yl)-H-indol-4-ylamino)-1,2,4-triazine-6-carboxamide]", "IC50": 0.42},
      {"smiles": "CC(C)(C)n1cc2cc(Nc3nc(N[C@@H]4CCCC[C@@H]4N)nnc3C(N)=O)cc(-n3cccn3)c2n1", "note": "[Example 66, 3-(((1R,2S)-2-aminocyclohexyl)amino)-5-((2-(tert-butyl)-7-(1H-pyrazol-1-yl)-2H-indazol-5-yl)amino)-1,2,4-triazine-6-carboxamide]", "IC50": 0.61},
      {"smiles": "NC(=O)c1nnc(N[C@@H]2CCCC[C@@H]2N)nc1Nc1cccc2c1ccn2CCF", "note": "[Example 35, 3-((1R,2S)-2-aminocyclohexylamino)-5-(1-(2-fluoroethyl)-1H-indol-4-ylamino)-1,2,4-triazine-6-carboxamide]", "IC50": 0.51},
      {"smiles": "CCn1cc2ccc(Nc3nc(N[C@@H]4CCCCC[C@@H]4N)nnc3C(N)=O)cc2n1", "note": "[Example 316, 3-(((1R,2S)-2-aminocycloheptyl)amino)-5-((2-ethyl-2H-indazol-6-yl)amino)-1,2,4-triazine-6-carboxamide]", "IC50": 0.31},
      {"smiles": "Cc1cc(Nc2nc(N[C@@H]3CCCC[C@@H]3N)nnc2C(N)=O)cc2cn(C(F)F)nc12", "note": "[Example 62, 3-(((1R,2S)-2-aminocyclohexyl)amino)-5-((2-(difluoromethyl)-7-methyl-2H-indazol-5-yl)amino)-1,2,4-triazine-6-carboxamide]", "IC50": 0.37},
      {"smiles": "CCn1ncc2c(Nc3nc(N[C@@H]4CCCC[C@@H]4N)nnc3C(N)=O)cccc21", "note": "[Example 107, 3-(((1R,2S)-2-aminocyclohexyl)amino)-5-((1-ethyl-1H-indazol-4-yl)amino)-1,2,4-triazine-6-carboxamide]", "IC50": 0.61},
      {"smiles": "Cc1cc2c(Nc3nc(N[C@@H]4CCCC[C@@H]4N)nnc3C(N)=O)cccc2n1C1CC1", "note": "[Example 33, 3-((1R,2S)-2-aminocyclohexylamino)-5-(1-cyclopropyl-2-methyl-H-indol-4-ylamino)-1,2,4-triazine-6-carboxamide]", "IC50": 0.71},
      {"smiles": "[2H]C([2H])([2H])C([2H])([2H])n1ncc2cc(Nc3nc(N[C@@H]4CCCC[C@@H]4N)nnc3C(N)=O)ccc21", "note": "[Example 5, 3-((1R,2S)-2-aminocyclohexylamino)-5-(1-(ethyl-d5)-1H-indazol-5-ylamino)-1,2,4-triazine-6-carboxamide]", "IC50": 0.52},
      {"smiles": "NC(=O)c1nnc(N[C@@H]2CCCC[C@@H]2N)nc1Nc1cccc2sccc12", "note": "[Example 2, 3-((1R,2S)-2-aminocyclohexylamino)-5-(benzo[b]thiophen-4-ylamino)-1,2,4-triazine-6-carboxamide]", "IC50": 0.46},
      {"smiles": "NC(=O)c1nnc(N[C@@H]2CCCC[C@@H]2N)nc1Nc1cncc(C2CC2)c1", "note": "[Example 16, 3-((1R,2S)-2-aminocyclohexylamino)-5-(5-cyclopropylpyridin-3-ylamino)-1,2,4-triazine-6-carboxamide]", "IC50": 0.94},
      {"smiles": "NC(=O)c1nnc(N[C@@H]2CCCC[C@@H]2N)nc1Nc1ccc2ncccc2c1", "note": "[Example 1, 3-((1R,2S)-2-aminocyclohexylamino)-5-(quinolin-6-ylamino)-1,2,4-triazine-6-carboxamide]", "IC50": 0.4},
      {"smiles": "CCn1nc(C)c2cc(Nc3nc(N[C@@H]4CCCC[C@@H]4N)nnc3C(N)=O)ccc21", "note": "[Example 56, 3-((1R,2S)-2-aminocyclohexylamino)-5-(1-ethyl-3-methyl-1H-indazol-5-ylamino)-1,2,4-triazine-6-carboxamide]", "IC50": 0.5},
      {"smiles": "COc1ccc2sc(Nc3nc(N[C@@H]4CCCC[C@@H]4N)nnc3C(N)=O)c(C)c2c1", "note": "[Example 48, 3-((1R,2S)-2-aminocyclohexylamino)-5-(5-methoxy-3-methylbenzo[b]thiophen-2-ylamino)-1,2,4-triazine-6-carboxamide]", "IC50": 0.27},
      {"smiles": "CCOC[C@H](N)[C@@H](C)Nc1nnc(C(N)=O)c(Nc2cc(C)c3ncccc3c2)n1", "note": "[Example 282]", "IC50": 0.48},
      {"smiles": "NC(=O)c1nnc(N[C@@H]2CCCC[C@@H]2N)nc1Nc1cc(-c2ncccn2)cs1", "note": "[Example 76, 3-(((1R,2S)-2-aminocyclohexyl)amino)-5-((4-(pyrimidin-2-yl)thiophen-2-yl)amino)-1,2,4-triazine-6-carboxamide]", "IC50": 0.55},
      {"smiles": "CCn1ncc2c(C)cc(Nc3nc(N[C@@H]4CCOC[C@@H]4N)nnc3C(N)=O)cc21", "note": "[Example 310]", "IC50": 0.59},
      {"smiles": "Cn1cc(-c2cc(Nc3nc(N[C@@H]4CCCC[C@@H]4N)nnc3C(N)=O)c3cnn(C)c3c2)cn1", "note": "[Example 13, 3-((1R,2S)-2-aminocyclohexylamino)-5-(1-methyl-6-(1-methyl-1H-pyrazol-4-yl)-1H-indazol-4-ylamino)-1,2,4-triazine-6-carboxamide]", "IC50": 0.49},
      {"smiles": "CC(C)(C)n1cc2cc(Nc3nc(N[C@@H]4CCOC[C@@H]4N)nnc3C(N)=O)cc(Cl)c2n1", "note": "[Example 100, 3-(((3R,4R)-3-aminotetrahydro-2H-pyran-4-yl)amino)-5-((2-(tert-butyl)-7-chloro-2H-indazol-5-yl)amino)-1,2,4-triazine-6-carboxamide]", "IC50": 0.41},
      {"smiles": "CCn1nc(C)c2ccc(Nc3nc(N[C@@H]4CCCC[C@@H]4N)nnc3C(N)=O)cc21", "note": "[Example 50, 3-((1R,2S)-2-aminocyclohexylamino)-5-(1-ethyl-3-methyl-1H-indazol-6-ylamino)-1,2,4-triazine-6-carboxamide]", "IC50": 0.42},
      {"smiles": "N#Cc1cc(Nc2nc(N[C@@H]3CCCC[C@@H]3N)nnc2C(N)=O)c2ccsc2c1", "note": "[Example 208]", "IC50": 0.4},
      {"smiles": "COC[C@H](N)[C@@H](C)Nc1nnc(C(N)=O)c(Nc2cc(C)c3c(cnn3C(C)C)c2)n1", "note": "[Example 284]", "IC50": 0.34},
      {"smiles": "NC(=O)c1nnc(N[C@@H]2CCCC[C@@H]2N)nc1Nc1ccc2nn(C3CCC3)cc2c1", "note": "[Example 11, 3-((1R,2S)-2-aminocyclohexylamino)-5-(2-cyclobutyl-2H-indazol-5-ylamino)-1,2,4-triazine-6-carboxamide]", "IC50": 0.47},
      {"smiles": "NC(=O)c1nnc(N[C@@H]2CCCC[C@@H]2N)nc1Nc1cccc2nn(C(F)F)cc12", "note": "[Example 209]", "IC50": 0.33},
      {"smiles": "Cn1ccc(-n2ccc3c(Nc4nc(NCC5(N)CCC5)nnc4C(N)=O)cccc32)n1", "note": "[Example 106, 3-(((1-aminocyclobutyl)methyl)amino)-5-((1-(1-methyl-1H-pyrazol-3-yl)-1H-indol-4-yl)amino)-1,2,4-triazine-6-carboxamide]", "IC50": 0.85},
      {"smiles": "Cc1cc(Nc2nc(N[C@@H]3CCOC[C@@H]3N)nnc2C(N)=O)cc2cn(C(C)(C)CO)nc12", "note": "[Example 99, 3-(((3R,4R)-3-aminotetrahydro-2H-pyran-4-yl)amino)-5-((2-(1-hydroxy-2-methylpropan-2-yl)-7-methyl-2H-indazol-5-yl)amino)-1,2,4-triazine-6-carboxamide]", "IC50": 0.63}
    ]},
    {"system": "SU-DHL-6 cells (diffuse large-cell lymphoma cell line)", "assay": "Cell growth inhibition test", "format": "cell-based", "conditions": "Homo sapiens, 72 h; SU-DHL-6 cells, 3 days culture, Table 96; read-out: Cell growth inhibition IC50", "procedure": "(§1) The compound of the present invention was serially diluted with dimethyl sulfoxide and then added to an RPMI1640 medium containing 10% FBS. Each resulting solution was added at a concentration of 100 μl/well to the preceding SU-DHL-6 cell culture plate (final concentration of the compound: 10, 3, 1, 0.3, 0.1, 0.03, 0.01, and 0.003 μM). The cells were cultured at 37° C. for 3 days in an incubator containing 5% CO2. The cells thus cultured were left at room temperature for 30 minutes and then centrifuged at 1500 rpm for 3 minutes using a centrifuge (Hitachi Koki Co., Ltd., Himac CF7D2). A 100 μl aliquot of the supernatant was removed from each well to allow 100 μl of the cell culture solution to remain therein. This 100 μl of the remaining cell culture solution was supplemented with an equal amount of CellTiter-Glo Luminescent Cell Viability Assay (Promega KK, Cat#: G7573), and the mixture was then shaken for 1 minute using a plate mixer. The reaction solution was left in the dark for 10 minutes. Then, luminescence intensity derived from live cells of each well was measured using a microplate reader (PerkinElmer Inc., ARVOsx). […] Likewise, the IC50 values (μM) of the control compounds were also calculated and then compared with that of the compound of the present invention. Rate of cell growth inhibition(%)=(C−T)/C×100 T: luminescence intensity (count per second) of a well supplemented with the test compound C: luminescence intensity (count per second) of a well non-supplemented with the test compound", "units": {"IC50": "nM"}, "values": [
      {"smiles": "CCn1cc2cc(Nc3nc(N[C@@H]4CCCC[C@@H]4N)nnc3C(N)=O)cc(-n3cccn3)c2n1", "note": "[Example 79, 3-(((1R,2S)-2-aminocyclohexyl)amino)-5-((2-ethyl-7-(1H-pyrazol-1-yl)-2H-indazol-5-yl)amino)-1,2,4-triazine-6-carboxamide]", "IC50": 93},
      {"smiles": "NC(=O)c1nnc(N[C@@H]2CCCC[C@@H]2N)nc1Nc1csc2ccccc12", "note": "[Example 212]", "IC50": 128},
      {"smiles": "COC[C@H](N)[C@@H](C)Nc1nnc(C(N)=O)c(Nc2cc(C)cc3c2ccn3C)n1", "note": "[Example 256, 3-(((2R,3R)-3-amino-4-methoxybutan-2-yl)amino)-5-((1,6-dimethyl-1H-indol-4-yl)amino)-1,2,4-triazine-6-carboxamide]", "IC50": 157},
      {"smiles": "NC(=O)c1nnc(N[C@@H]2CCCC[C@@H]2N)nc1Nc1cccc2c1ccn2C1COC1", "note": "[Example 34, 3-((1R,2S)-2-aminocyclohexylamino)-5-(1-(oxetan-3-yl)-H-indol-4-ylamino)-1,2,4-triazine-6-carboxamide]", "IC50": 65},
      {"smiles": "NC(=O)c1nnc(N[C@@H]2CCCC[C@@H]2N)nc1Nc1cccc2c1ccn2CCF", "note": "[Example 35, 3-((1R,2S)-2-aminocyclohexylamino)-5-(1-(2-fluoroethyl)-1H-indol-4-ylamino)-1,2,4-triazine-6-carboxamide]", "IC50": 107},
      {"smiles": "CCn1ccc2c(Nc3nc(N[C@@H]4CCCC[C@@H]4N)nnc3C(N)=O)cccc21", "note": "[Example 17, 3-((1R,2S)-2-aminocyclohexylamino)-5-(1-ethyl-1H-indol-4-ylamino)-1,2,4-triazine-6-carboxamide]", "IC50": 76}
    ]},
    {"system": "SU-DHL-6 cells (diffuse large-cell lymphoma cell line)", "assay": "Cell growth inhibition test", "format": "cell-based", "conditions": "Homo sapiens, SU-DHL-6, 72 h, read-out: Cell growth inhibition IC50", "procedure": "as §1", "units": {"IC50": "nM"}, "values": [
      {"smiles": "[2H]C([2H])([2H])C([2H])([2H])n1ncc2cc(Nc3nc(N[C@H]4CCCNC4)nnc3C(N)=O)ccc21", "note": "[Example 7, (S)-5-(1-(ethyl-d5)-1H-indazol-5-ylamino)-3-(piperidin-3-ylamino)-1,2,4-triazine-6-carboxamide diformate]", "IC50": 174}
    ]}
  ]
}
